Measurements: US20260306460A1, “COMPOSITION FOR REMOVING AND INHIBITING SENESCENT CELLS, AND USES THEREOF” (LIFECEUTIX CO., LTD., priority 2023, published 2026)

Tests used:
Format in all cases: in vivo, mouse
naturally aged mice = experiment: Anti-aging evaluation in naturally aged mice, Example 31, Table 55; details: for Femur Ctsk mRNA / Kidney Agtr1a mRNA / Liver IL6 mRNA / Liver MMP3 mRNA / Liver p16 mRNA / Open Field Test Time in Center: untreated = 100%; for Heart Sur2a mRNA / Joint Col2a1 mRNA / Skin Col1a1 mRNA / Skin SDF1 mRNA: untreated = 1.0; for Muscle Mass: untreated 0.64 g; for Fat Mass: untreated 0.82 g; for Cataract incidence: untreated 83%;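 as to all read-outs here: Vehicle-dosed control mice received solution alone at matching volume, values compare test-compound-treated aged mice against that control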
SAMP8 mice = experiment: Cognitive impairment in SAMP8 mice (p16 mRNA, Y maze), Example 28, Table 52; details: for Spontaneous alternation: Y maze test, 8 minutes, untreated 48.4 (±27.3); for p16 mRNA: hippocampus, daily for 21 days, untreated 100%
Method: Twelve-week-old male SAMP8 mice (SLC), a cognitive impairment model, were acclimated to the experimental environment for one week and then randomly assigned to experimental and control groups. […] LX-2101 was mixed with 5% DMSO (Sigma) in PBS and administered intraperitoneally at a concentration of 10 mg/kg daily for 21 days. The control group received only the same volume of solution. After drug administration, the mice were tested in the Y maze test to analyze the degree of cognitive and memory improvement. The Y-maze test is a method to assess short-term memory-type spatial awareness. It is a Y-shaped enclosed maze made of black acrylic to the following specifications (40 cm in length, 8 cm in width, 13 cm in height, with each arm angled 120 degrees). Three arms are designated A, B, and C. A mouse is carefully placed on one arm and allowed to move freely for 8 minutes. The arm into which the mouse enters up to its tail is recorded in order. Each instance of entering each arm sequentially is awarded 1 point (actual alternation). Alternation behavior is defined as entering all arms without overlapping, and spontaneous alternation behavior is calculated using the following formula:
Spontaneous alternation behavior (%)=Actual alternation/Maximum alternation×100 • Maximum alternation: Total number of entries-2
After the behavioral evaluation, the mice were sacrificed, and RNA from the hippocampus region of the brain was extracted using the same method as Example 7-2 of WO2023-085787 A1, and qRT-PCR was performed using the synthesized cDNA.

[1] = tested on: doxorubicin-induced aged C57BL6J mice; experiment: Kidney damage (urea, creatinine, Agtr1a mRNA) in doxorubicin-aged mice, Example 22-9, Table 38; details: amount after aging calculated as 100%; for Creatinine / Urea: serum
Method: Eight-week-old male C57BL6J mice (KRIBB Laboratory Animal Resource Center) were acclimated to the experimental environment for one week. Afterwards, the anticancer agent doxorubicin was administered intraperitoneally at a concentration of 10 mg/kg, inducing aging for more than 10 days. The aging-induced mice were randomly assigned to experimental and control groups. LX-403 was mixed with a 10% ethanol solution of PEG400 and administered orally at a concentration of 25 mg/kg or intradermally at a concentration of 1 μM for 21 days. LX-1801 was mixed in distilled water with 4% DMSO, 30% PEG300, and 5% Tween80 and administered intradermally at a concentration of 0.4 μM daily for 21 days. LX-2001 was mixed in PBS and administered intradermally at a concentration of 2 μM daily for 21 days. LX-2002 was mixed in distilled water with 4% DMSO, 30% PEG300, and 5% Tween80 and administered intradermally at a concentration of 2 μM daily for 21 days. […] LX-2005 was mixed in distilled water with 4% DMSO, 30% PEG300, and 5% Tween80 and administered intradermally at a concentration of 90 μM daily for 21 days. LX-2007 was mixed in distilled water with 4% DMSO, 30% PEG300, and 5% Tween80 and administered intradermally at a concentration of 90 μM daily for 21 days. […] LX-3002 was mixed in distilled water with 4% DMSO, 30% PEG300, and 5% Tween80 and administered orally at a concentration of 10 mg/kg daily for 21 days. […] LX-5411 was mixed in 5% phosphate-buffered saline (PBS) and administered orally at a concentration of 10 mg/kg daily for 21 days or intradermally at a concentration of 3 μM. LX-5701 was mixed in PBS and administered orally at a concentration of 360 mg/kg daily for 21 days. LX-6807 was mixed in saline and administered intraperitoneally at a concentration of 1 mg/kg daily for 21 days. The control group received only the solution in the same volume. After the end of drug administration, the methods described in each example below were performed.
The amounts of urea and creatinine, markers of kidney damage, were measured spectrophotometrically in serum collected from mice using the same method as in Examples 7-8 of WO2023-085787 A1. […] The amount of each factor after aging was calculated as 100% and compared with the amount of each factor after treatment with the test compound.

[2] = tested on: obesity-induced aged C57BL6J mice; experiment: Diabetes and complications (HbA1c, wound size, VEGF mRNA) in obesity-aged mice, Example 23-6, Table 46; details: for VEGF mRNA: eye, qRT-PCR, amount after aging calculated as 100%; for diabetic foot ulcer size: full-thickness 5 mm×5 mm wound, untreated 4.2 (±0.4); for diabetic foot ulcer size / HbA1c: obesity-induced diabetes mice; for HbA1c: serum, daily for 21 days, untreated 6.9 (±1.5)
Method: 15-week-old male C57BL6J mice (The Jackson Laboratory) were induced to obesity by a high-fat diet using the same method as in Example 9-1 WO2023-085787 A1. After acclimation to the experimental environment for one week, the mice were randomly assigned to experimental and control groups. […] LX-3002 was mixed in distilled water with 4% DMSO, 30% PEG300, and 5% Tween80 and administered orally at a concentration of 10 mg/kg daily for 21 days. LX-5701 was mixed in PBS and administered orally at a concentration of 360 mg/kg daily for 21 days. LX-6807 was mixed in saline and administered intraperitoneally at a concentration of 1 mg/kg daily for 21 days. The control group received only the solution in the same volume. After the end of drug administration, the methods described in each example below were performed.
Serum collected from mice using the same method as in Example 7-5 of WO2023-085787 A1 was used to measure glycated hemoglobin (HbA1c), a marker of hyperglycemia and diabetes. Furthermore, the improvement in diabetic foot ulcers and diabetic retinopathy, major complications of diabetes, was analyzed. Specifically, a diabetic foot ulcer model was created by creating a full-thickness 5 mm×5 mm wound on the left dorsal skin of mice induced with obesity-induced diabetes. The wound size was measured under untreated and treated conditions with the test compound, and the healing effect was analyzed. In addition, the mRNA amount of VEGF, a marker of angiogenesis in retinopathy, was measured from the eye using qRT-PCR as described in Example 7-2 of WO2023-085787 A1. The qRT-PCR results were calculated as 100% for the amount of each factor after aging was induced, and compared with the amount of each factor after treatment with the test compound.

Compound: O=C(C(C[N+](=O)[O-])=NO)N1CCN(C(c2ccc(Cl)cc2)c2ccc(Cl)cc2)CC1 [LX-403]
- Femur Ctsk mRNA (naturally aged mice): 22%
- Heart Sur2a mRNA (naturally aged mice): 2.9 fold
- Joint Col2a1 mRNA (naturally aged mice): 3.4 fold
- Kidney Agtr1a mRNA (naturally aged mice): 64%
- Liver IL6 mRNA (naturally aged mice): 53%
- Liver MMP3 mRNA (naturally aged mice): 45%
- Liver p16 mRNA (naturally aged mice): 34%
- Open Field Test Time in Center (naturally aged mice): 237%
- Skin Col1a1 mRNA (naturally aged mice): 2.8 Fold
- Skin SDF1 mRNA (naturally aged mice): 2.7 fold
- Muscle Mass (naturally aged mice): 0.76 g
- Fat Mass (naturally aged mice): 0.98 g
- Cataract incidence (naturally aged mice): 64%

Compound: S=C(N/N=C1\CCCc2cccnc21)N1CCN(c2ccccn2)CC1 [LX-801]
- Femur Ctsk mRNA (naturally aged mice): 70%
- Heart Sur2a mRNA (naturally aged mice): 2.8 fold
- Joint Col2a1 mRNA (naturally aged mice): 2.7 fold
- Kidney Agtr1a mRNA (naturally aged mice): 55%
- Liver IL6 mRNA (naturally aged mice): 64%
- Liver MMP3 mRNA (naturally aged mice): 35%
- Liver p16 mRNA (naturally aged mice): 53%
- Open Field Test Time in Center (naturally aged mice): 222%
- Skin Col1a1 mRNA (naturally aged mice): 2.1 Fold
- Skin SDF1 mRNA (naturally aged mice): 2.1 fold
- Muscle Mass (naturally aged mice): 0.77 g
- Fat Mass (naturally aged mice): 1.09 g
- Cataract incidence (naturally aged mice): 57%

Compound: C[C@@H]1CC[C@@]23C[C@H](O)C(=O)[C@@]2(O)[C@]1(C)[C@H](OC(=O)CCl)C[C@@H](C1=CCn2c(=O)n(-c4ccccc4)c(=O)n2C1)[C@@H]3C [LX-1801, (2S,3aS,4S,5R,7R,8S,8aS,11R)-7-(1,3-Dioxo-2-phenyl-2,3,5,8-tetrahydro-1H-[1,2,4]triazolo[1,2-a]pyridazin-6-yl)-2,3a-dihydroxy-4,8,11-trimethyl-3-oxooctahydro-1H-4,8a-propanoazulen-5-yl 2-Chloroacetate]
- Femur Ctsk mRNA (naturally aged mice): 69%
- Heart Sur2a mRNA (naturally aged mice): 2.7 fold
- Joint Col2a1 mRNA (naturally aged mice): 2.6 fold
- Kidney Agtr1a mRNA (naturally aged mice): 48%
- Liver IL6 mRNA (naturally aged mice): 53%
- Liver MMP3 mRNA (naturally aged mice): 49%
- Liver p16 mRNA (naturally aged mice): 42%
- Open Field Test Time in Center (naturally aged mice): 287%
- Skin Col1a1 mRNA (naturally aged mice): 1.9 Fold
- Skin SDF1 mRNA (naturally aged mice): 2.2 fold
- Muscle Mass (naturally aged mice): 0.78 g
- Fat Mass (naturally aged mice): 1.16 g
- Cataract incidence (naturally aged mice): 35%

Compound: CC1(C)CC[C@]2(NC(=O)C(C)(F)F)CC[C@]3(C)[C@H](C(=O)C=C4[C@@]5(C)C=C(C#N)C(=O)C(C)(C)[C@@H]5CC[C@]43C)[C@@H]2C1 [LX-2101, Omaveloxolone]
- Spontaneous alternation (SAMP8 mice): 51.1 (±16.8) %
- p16 mRNA (SAMP8 mice): 82 (±7.1) %

Compound: CCCC\C=C/C=C/C=C\CCCCCCCC(=O)O [LX-2707, Punicic acid]
- Agtr1a mRNA [1]: 62 (±3.8) %
- Creatinine [1]: 75 (±5.3) %
- Urea [1]: 80 (±3.3) %
- VEGF mRNA [2]: 76 (±4.0) %
- diabetic foot ulcer size [2]: 3.4 (±0.3) mm
- HbA1c [2]: 6.1 (±0.6) %
- Spontaneous alternation (SAMP8 mice): 54.5 (±2.0) %
- p16 mRNA (SAMP8 mice): 75 (±3.3) %

Compound: COC(=O)[C@H]1Cc2c([nH]c3ccccc23)[C@H](c2ccc(S(C)(=O)=O)cc2)N1C(=O)CCl [LX-5401, methyl (1S,3R)-2-(2-chloroacetyl)-1-(4-(methylsulfonyl)phenyl)-2,3,4,9-tetrahydro-1H-pyrido[3,4-b]indole-3-carboxylate]
- Femur Ctsk mRNA (naturally aged mice): 42%
- Heart Sur2a mRNA (naturally aged mice): 1.7 fold
- Joint Col2a1 mRNA (naturally aged mice): 1.6 fold
- Kidney Agtr1a mRNA (naturally aged mice): 73%
- Liver IL6 mRNA (naturally aged mice): 55%
- Liver MMP3 mRNA (naturally aged mice): 81%
- Liver p16 mRNA (naturally aged mice): 73%
- Open Field Test Time in Center (naturally aged mice): 179%
- Muscle Mass (naturally aged mice): 0.69 g
- Fat Mass (naturally aged mice): 0.89 g
- Cataract incidence (naturally aged mice): 77%

Compound: C#CC(=O)N1[C@@H](CCCC)Cc2cc(OC)ccc2[C@@H]1c1ccc(NC23CC4CC(CC(C4)C2)C3)cc1 [LX-5411]
- Femur Ctsk mRNA (naturally aged mice): 71%
- Heart Sur2a mRNA (naturally aged mice): 2.5 fold
- Joint Col2a1 mRNA (naturally aged mice): 2.0 fold
- Kidney Agtr1a mRNA (naturally aged mice): 68%
- Liver IL6 mRNA (naturally aged mice): 63%
- Liver MMP3 mRNA (naturally aged mice): 58%
- Liver p16 mRNA (naturally aged mice): 65%
- Open Field Test Time in Center (naturally aged mice): 214%
- Skin Col1a1 mRNA (naturally aged mice): 1.6 Fold
- Skin SDF1 mRNA (naturally aged mice): 1.9 fold
- Muscle Mass (naturally aged mice): 0.74 g
- Fat Mass (naturally aged mice): 1.21 g
- Cataract incidence (naturally aged mice): 52%

Compound: O=C1C2CCN(CC2)C1CNC(=O)C(F)(F)F (stereo not shown) [LX-5701]
- Agtr1a mRNA [1]: 60 (±10.4) %
- Creatinine [1]: 80 (±5.0) %
- Urea [1]: 75 (±5.9) %
- VEGF mRNA [2]: 61 (±10.6) %
- diabetic foot ulcer size [2]: 3.0 (±0.9) mm
- HbA1c [2]: 5.0 (±1.3) %
- Spontaneous alternation (SAMP8 mice): 62.7 (±11.9) %
- p16 mRNA (SAMP8 mice): 70 (±9.6) %

Compound: Cc1cccc([C@H](C)c2cnc[nH]2)c1C [LX-6807, Dexmedetomidine]
- Agtr1a mRNA [1]: 43 (±3.0) %
- Creatinine [1]: 73 (±2.7) %
- Urea [1]: 72 (±5.8) %
- VEGF mRNA [2]: 68 (±1.6) %
- diabetic foot ulcer size [2]: 3.3 (±0.5) mm
- HbA1c [2]: 5.4 (±0.5) %
- Spontaneous alternation (SAMP8 mice): 60.7 (±4.3) %
- p16 mRNA (SAMP8 mice): 39 (±6.2) %

Compound: Tocofersolan [LX-3001]
- Agtr1a mRNA [1]: 70 (±5.8) %
- Creatinine [1]: 85 (±4.4) %
- Urea [1]: 76 (±2.8) %
- VEGF mRNA [2]: 77 (±2.4) %
- diabetic foot ulcer size [2]: 3.5 (±0.2) mm
- HbA1c [2]: 6.4 (±0.4) %
- Spontaneous alternation (SAMP8 mice): 50.6 (±3.6) %
- p16 mRNA (SAMP8 mice): 64 (±2.8) %
